Laboratory results taken from patent US11235022B2, “Methods of diagnosis, selection, and treatment of diseases and conditions caused by or associated with methanogens” (Cedars-Sinai Medical Center, priority 2013, dated 2022).

How the values were obtained:
[1] = test system: methane on breath testing; constipation symptoms; conditions: retrospective study; 10 days; cited from earlier work
[2] = Example 4A: glucose tolerance test and cholesterol before and after antibiotic in single patients; type: in vivo, human
Protocol: After an administration of rifaximin at 550 mg, three times a day, the peak glucose was 161 mg/dL. Cholesterol for the same patient was 200 and then 171 after treatment. […] After an administration of neomycin at 500 mg, twice daily, the peak glucose was 121. Cholesterol was 202 before the treatment and was down to 178 after treatment.

[3] = test system: small bowel motility / small intestinal transit; conditions: cited from earlier work
[4] = test system: methane producers with constipation predominant IBS; conditions: placebo 5.0±5.1%; cited from earlier work

Row | Compound | reduction in constipation symptoms [1] [%] | reduction in methane [1] [%] | cholesterol after treatment ([2]; Patient 1, rifaximin 550 mg three times a day, 200 before) | peak glucose on glucose tolerance test after treatment ([2]; Patient 1, rifaximin 550 mg three times a day, 260 before antibiotics) [mg/dL] | reduction of proximal small bowel motility (average) ([3]; 5 dogs, methane infused through mid-small bowel fistula) [%] | slowing of small intestinal transit ([3]; in vivo animal study, infusion of methane into the small intestine) [%] | peak glucose on glucose tolerance test after treatment ([2]; Patient 2, neomycin 500 mg twice daily, 154 before antibiotics) | cholesterol after treatment ([2]; Patient 2, neomycin 500 mg twice daily, 202 before) | improvement in constipation [4] [%]
1 | CO[C@H]1/C=C/O[C@@]2(C)Oc3c(C)c(O)c4c(O)c(c5c(nc6cc(C)ccn65)c4c3C2=O)NC(=O)/C(C)=C\C=C\[C@H](C)[C@H](O)[C@@H](C)[C@@H](O)[C@@H](C)[C@H](OC(C)=O)[C@@H]1C [rifaximin] | 56 | 28 | 171 | 161 |  |  |  |  | 
2 | C [methane] |  |  |  |  | 59 | 59 |  |  | 
3 | neomycin | 63 | 33 |  |  |  |  | 121 | 178 | 44.0±12.3
